Test results reported in EP0863156A1, “Peptides useful as somatostatin antagonists” (American Cyanamid Company, priority 1997, dated 1998).
Where two headings read alike, the source gives them in different places. Square brackets hold non-standard residues; d marks the D form. Peptide text beside a SMILES is read from it.

What was measured:
SSTR2 = SSTR2 (Rattus norvegicus, UniProt P30680); assay: cAMP accumulation in forskolin-stimulated GH4C1/SSTR2 cells (SPA radioimmunoassay); assay type: cell-based; design: expressed in transfected cells; host or cells: GH4C1 rat pituitary tumor cells; conditions: for cAMP Assay Intrinsic activity / Emax: percent reversal of SSTR2 activation by SRIF or MK678, 0% = forskolin plus agonist, 100% = forskolin alone; for Emax: GH4-C1, read-out: cAMP Assay Intrinsic activity
SSTR2, sequence (P30680 whole entry): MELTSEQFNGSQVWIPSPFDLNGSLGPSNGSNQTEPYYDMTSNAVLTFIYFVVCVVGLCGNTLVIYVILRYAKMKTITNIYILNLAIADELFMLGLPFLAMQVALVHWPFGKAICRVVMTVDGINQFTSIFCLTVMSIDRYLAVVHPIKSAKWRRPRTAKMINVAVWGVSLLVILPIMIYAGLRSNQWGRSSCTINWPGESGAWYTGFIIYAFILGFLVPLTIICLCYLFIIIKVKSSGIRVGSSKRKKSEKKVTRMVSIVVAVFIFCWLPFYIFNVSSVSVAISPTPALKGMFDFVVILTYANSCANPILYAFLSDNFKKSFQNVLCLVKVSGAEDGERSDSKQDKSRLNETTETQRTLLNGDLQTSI
Method: This is the basis of a common assay for SRIF agonists and antagonists, whereby SRIF agonists reduce artificially stimulated cAMP levels, and SRIF antagonists reverse the effect of SRIF. […] This increases the response to SRIF and provides a greater dynamic range for the measurement of SRIF antagonist activity.
Stimulation of cells. GH4C1/SSTR2 cells, grown in DMEM with 10% bovine serum, are released from a tissue culture dish by incubation for several minutes at 37° C with PBS containing 0.5 mM EDTA. Cells are washed in induction buffer (PBS containing 100 µM IBMX (an inhibitor of cAMP breakdown) and 2 mM CaCl2) at room temperature, and resuspended at 2 x 10^6/mL in induction buffer. Into each well of a 96-well tray are added 50 µL of a 2 X concentration of stimulants in induction buffer. […] To initiate stimulation of the cells, 50 µL (100,000) cells are added to each well, mixed by shaking 10 seconds on a plate shaker and placed at 37° C for 15 minutes. Stimulation is arrested and cells are lysed by adding 15 µL 0.33 N HCI to each well and incubating the plate for 30 minutes at 37° C. Samples are neutralized by addition of 15 µL 0.25 N NaOH/50 mM Hepes pH 7.4. Baseline cAMP levels are determined in samples with no added forskolin or SRIF, and each treatment is performed in triplicate.
cAMP assay. To measure accumulated cAMP in the samples, a radioimmunoassay is employed. The scintillation proximity assay (SPA, Amersham, Arlington Heights, IL) allows the rapid measurement of ^125I cAMP bound to a specific antibody without separating bound radioligand from free radioligand. Each of the following reagents (15 µL) are added per well in a 96-well tray: supernatants from the cell stimulation; ^125I cAMP; SPA beads conjugated to monkey anti-rabbit IgG antibodies; and rabbit anti-cAMP antibodies. For the standard curve, known amounts of cAMP (0.2 - 12.8 pmol) are added in place of cell supernatants. The 96-well tray is sealed, shaken at room temperature overnight and measured for bound radioligand in a MicroBeta liquid scintillation counter (Wallac, Gaithersburg. MD).
The intrinsic activity of an SRIF antagonist is the percent reversal of the SSTR2 activation by SRIF or MK678, wherein 0% is defined by cAMP levels in samples treated with forskolin plus SRIF or MK678 and 100% is the cAMP level measured after treatment with forskolin alone. Therefore, increased intrinsic activity of a test compound indicates increased antagonist activity of said test compound.
An inverse agonist is a compound that is not only a pure antagonist (i.e. lacking agonist activity), but also blocks the constitutive activity of an unoccupied receptor. One indication of inverse agonist activity is the ability of a SRIF antagonist to increase cAMP levels in the absence of added SRIF.

SRIF receptors = target: T1, SRIF receptors (Rattus norvegicus, UniProt P30680); assay: Yeast bioassay for SRIF antagonist activity (zone of growth inhibition of LY364 cells growing in response to SRIF); assay type: cell-based; conditions: 10 µL of 5 mg/mL on filter disk, S-14 10 nM; for Yeast Assay (mm): Table III, diameter of zone of growth inhibition; for Inhibition Zone (mm): sample type 4th iteration, read after 3 days, compare only within same experiment
T1 construct: expressed in transfected cells; host or cells: Saccharomyces cerevisiae strain LY364
T1 sequence (P30680 whole entry): as above
Method: Agar plates containing LY364 cells that are growing in the presence of added SRIF are the basis for a sensitive SRIF antagonist assay, whereby zones of growth inhibition result from the addition of SRIF antagonists to the surface of the agar plate (see L.A. Price, et al., Molecular and Cellular Biology, 15, 6188-6195, 1995, incorporated herein by reference).
In this assay, LY364 cells are grown overnight in 2 mL of synthetic complete(SC) medium (3.4 g/L YNB without amino acids and ammonium sulfate, 10 g/L ammonium sulfate and 1.4 g/L CSM-ura-trp) with glucose (2%) and without uracil and tryptophan. These cells are washed and cultured for 4 to 8 hours in 5 mL of SC medium with lactate (3%) and without uracil and tryptophan, and finally grown overnight in 5 mL of SC medium with galactose (2%) and without uracil and tryptophan. Molten (50° C) SC agar medium with galactose (2%) and without uracil, tryptophan and histidine is adjusted to pH 6.8 with KOH, mixed with 2 x 10^4 cells/mL and SRIF (S-14, 10 nM) and poured into square (20 x 20 cm) petri dishes. Sterile filter disks are placed on the surface of the agar, and saturated with 10 µL of water or DMSO containing 5 mg/mL test peptides. After three days, the plates display a uniform cloudy background of […] cells growing in response to the added SRIF. […] This zone is quantified by measuring its diameter (mm), which varies according to the potency of the SRIF antagonist. Those peptides or mixtures of peptides displaying the largest zones of inhibition are further characterized.
Values are compared among samples in the same experiment, as the degree of yeast growth varies somewhat from assay to assay. For the first five sample types, in which progressively less complex mixtures of peptides are found, this assay is the primary determining factor in choosing which samples form the basis of subsequent syntheses.
Plates are read after 3 days. Samples shown in Table I in bold type are chosen for further synthesis. In Table I, all amino acids are D-amino acids and dashes represent undefined amino acid residues.

[1] = test system: serum growth hormone (GH) levels; assay: In vivo serum growth hormone levels in anaesthetized rats (radioimmunoassay); design: species or system Male Sprague-Dawley rats; conditions: GRF 1 µg alone at 30 min
Method: Evaluation in anaesthetized rats. Male Sprague-Dawley rats are anaesthetized with Sagatal and fitted so as to allow efficient intravenous treatment with control and test compounds as well as frequent blood sampling. Blood samples are tested for growth hormone (GH) levels by radioimmunoassay. Thirty minutes after the initiation of blood sampling, rats are given 5 µg, 25 µg or 50 µg of peptide 1.
Peptide 1 is tested in combination with growth hormone releasing factor (GRF), to investigate whether said peptide may be mimicking the action of GRF. Anaesthetized rats are given GRF (1 µg) alone and in combination with peptide 1 (50 µg). […]

[2] = dose response of SRIF agonist upon cAMP levels in forskolin stimulated GH4C1/SSTR2 cells, agonist alone

For h-f-i-a-w-f [Peptide 5], the “cAMP Assay Intrinsic activity” value (SSTR2; test peptide 2 µM) was 44.1% and the “Yeast Assay (mm)” value (SRIF receptors) was 10 mm.

With w-h-i-r-w-f [Peptide 22] the “cAMP Assay Intrinsic activity” value (SSTR2; test peptide 2 µM) was 27.4% and the “Yeast Assay (mm)” value (SRIF receptors) was “none”.

h-F-i-r-w-f [Peptide 14] was tested, and the “cAMP Assay Intrinsic activity” value (SSTR2; test peptide 2 µM) was 29.6% and the “Yeast Assay (mm)” value (SRIF receptors) was 16 mm.

In the case of h-f-v-r-w-f [Peptide 28], the “cAMP Assay Intrinsic activity” value (SSTR2; test peptide 2 µM) is reported as 71.2% and the “Yeast Assay (mm)” value (SRIF receptors) is reported as 20 mm.

H-f-i-r-w-f [Peptide 13] was tested, and the “cAMP Assay Intrinsic activity” value (SSTR2; test peptide 2 µM) was 26.2% and the “Yeast Assay (mm)” value (SRIF receptors) was 15 mm.

With CC[C@@H](C)[C@@H](NC(=O)[C@@H](Cc1ccccc1)NC(=O)[C@@H](Cc1c[nH]cn1)NC(C)=O)C(=O)N[C@H](CCCNC(=N)N)C(=O)N[C@H](Cc1c[nH]c2ccccc12)C(=O)N[C@H](CC(C)C)C(N)=O [Seq Id No. 18] (Ac-[dH][dF][dI][dR][dW][dL]-NH2) the “Inhibition Zone (mm)” value (SRIF receptors) was 15 mm.

For CC[C@@H](C)[C@@H](NC(=O)[C@@H](Cc1ccccc1)NC(=O)[C@@H](Cc1c[nH]cn1)NC(C)=O)C(=O)N[C@H](CCCNC(=N)N)C(=O)N[C@H](Cc1c[nH]c2ccccc12)C(=O)N[C@H](Cc1ccc(O)cc1)C(N)=O [Seq Id No. 20] (Ac-[dH][dF][dI][dR][dW][dY]-NH2), the “Inhibition Zone (mm)” value (SRIF receptors) was 16 mm.

Molecule CC[C@@H](C)[C@@H](NC(C)=O)C(=O)N[C@H](CCCNC(=N)N)C(=O)N[C@H](Cc1c[nH]c2ccccc12)C(=O)N[C@H](Cc1ccccc1)C(=O)N[C@H](Cc1c[nH]cn1)C(=O)N[C@H](Cc1ccccc1)C(N)=O [Peptide 33, i-r-w-f-h-f] (Ac-[dI][dR][dW][dF][dH][dF]-NH2; N-terminus and C-terminus assumed) has an Emax (SSTR2; test peptide 100 µM) of 11.5%.

CC(C)[C@@H]1NC(=O)[C@H](CCCCN)NC(=O)[C@@H](Cc2c[nH]c3ccccc23)NC(=O)[C@H](Cc2ccc(O)cc2)NC(=O)[C@H](C)N(C)C(=O)[C@H](Cc2ccccc2)NC1=O [MK678, reference compound] gave a cAMP (SSTR2; Forskolin 1.25 µM + MK 678 10 nM, no Peptide 1 (forskolin alone 3.04; baseline 0.36)) of 0.91 pM per 4 x 10^4 cells, an EC50 (SSTR2; [2]) of 0.143 nM and a Maximum (SSTR2; [2]) of 6.431. The Minimum (SSTR2; [2]) was 2.673.

With CC[C@@H](C)[C@@H](NC(=O)[C@@H](Cc1ccccc1)NC(=O)[C@@H](Cc1c[nH]cn1)NC(C)=O)C(=O)N[C@H](CCCNC(=N)N)C(=O)NCC(=O)N[C@H](Cc1ccccc1)C(N)=O [Peptide 26, h-f-i-r-g-f] (Ac-[dH][dF][dI][dR]G[dF]-NH2) the Emax (SSTR2; test peptide 2 µM) was 4.51%.

CC[C@@H](C)[C@@H](NC(=O)[C@@H](Cc1ccccc1)NC(=O)[C@@H](Cc1c[nH]cn1)NC(C)=O)C(=O)N[C@H](CCCNC(=N)N)C(=O)N[C@H](Cc1c[nH]c2ccccc12)C(=O)NCC(N)=O [His Phe Ile Arg Trp Gly] (Ac-[dH][dF][dI][dR][dW]G-NH2) was tested, and the “Inhibition Zone (mm)” value (SRIF receptors) was 13 mm.

In the case of CC[C@@H](C)[C@@H](NC(=O)[C@@H](Cc1ccccc1)NC(=O)[C@@H](Cc1c[nH]cn1)NC(C)=O)C(=O)N[C@H](CCCNC(=N)N)C(=O)N[C@H](Cc1c[nH]c2ccccc12)C(=O)N[C@H](CCSC)C(N)=O [Seq Id No. 24] (Ac-[dH][dF][dI][dR][dW][dM]-NH2), the “Inhibition Zone (mm)” value (SRIF receptors) is reported as 18 mm.

With CC[C@@H](C)[C@@H](NC(=O)[C@@H](CCCNC(=N)N)NC(=O)[C@@H](Cc1ccccc1)NC(=O)[C@@H](Cc1c[nH]cn1)NC(C)=O)C(=O)N[C@H](Cc1c[nH]c2ccccc12)C(=O)N[C@H](Cc1ccccc1)C(N)=O [Peptide 31, h-f-r-i-w-f] (Ac-[dH][dF][dR][dI][dW][dF]-NH2; N-terminus and C-terminus assumed) the Emax (SSTR2; test peptide 100 µM) was 13%.

For “GRF: growth hormone releasing factor (GRF) [reference compound]”, the “SGH” value ([1]; time 0 min (before dosing)) was 11.2 ng/mL, the “SGH” value ([1]; time 15 min (before dosing)) was 11.3 ng/mL and the “SGH” value ([1]; time 30 min (time of dose)) was 8.4 ng/mL. For the same molecule, the “SGH” value ([1]; time 35 min) was 67.1 ng/mL, the “SGH” value ([1]; time 40 min) was 103.5 ng/mL and the “SGH” value ([1]; time 45 min) was 53.1 ng/mL.

CC[C@@H](C)[C@@H](NC(=O)[C@@H](Cc1ccccc1)NC(=O)[C@@H](Cc1c[nH]cn1)NC(C)=O)C(=O)N[C@H](CCCNC(=N)N)C(=O)N[C@H](Cc1c[nH]c2ccccc12)C(=O)N[C@H](Cc1c[nH]c2ccccc12)C(N)=O [Seq Id No. 25] (Ac-[dH][dF][dI][dR][dW][dW]-NH2) was tested, and the “Inhibition Zone (mm)” value (SRIF receptors) was 16 mm.

With CC[C@@H](C)[C@@H](NC(=O)[C@@H](Cc1ccccc1)NC(=O)[C@@H](Cc1c[nH]cn1)NC(C)=O)C(=O)N[C@H](CCCNC(=N)N)C(=O)N[C@H](Cc1c[nH]c2ccccc12)C(=O)N[C@H](CCC(N)=O)C(N)=O [Seq Id No. 26] (Ac-[dH][dF][dI][dR][dW][dQ]-NH2) the “Inhibition Zone (mm)” value (SRIF receptors) was 16 mm.

Work on CC[C@@H](C)[C@@H](NC(=O)[C@@H](CCCNC(=N)N)NC(=O)[C@@H](Cc1c[nH]c2ccccc12)NC(=O)[C@@H](Cc1ccccc1)NC(=O)[C@@H](Cc1c[nH]cn1)NC(C)=O)C(=O)N[C@H](Cc1ccccc1)C(N)=O [Peptide 30, h-f-w-r-i-f] (Ac-[dH][dF][dW][dR][dI][dF]-NH2; N-terminus and C-terminus assumed) yielded an Emax (SSTR2; test peptide 100 µM) of 12.9%.

In the case of CC[C@@H](C)[C@@H](NC(=O)[C@@H](Cc1ccccc1)NC(=O)[C@@H](Cc1c[nH]cn1)NC(C)=O)C(=O)N[C@H](CCCNC(=N)N)C(=O)N[C@H](Cc1c[nH]c2ccccc12)C(=O)N[C@H](CC(N)=O)C(N)=O [Seq Id No. 23] (Ac-[dH][dF][dI][dR][dW][dN]-NH2), the “Inhibition Zone (mm)” value (SRIF receptors) is reported as 15 mm.

CC[C@@H](C)[C@@H](NC(=O)[C@@H](Cc1ccccc1)NC(=O)[C@@H](Cc1c[nH]cn1)NC(C)=O)C(=O)N[C@H](CCCNC(=N)N)C(=O)N[C@H](Cc1c[nH]c2ccccc12)C(=O)N[C@@H](C(N)=O)[C@H](C)O [Seq Id No. 19] (Ac-[dH][dF][dI][dR][dW][dT]-NH2) was tested, and the “Inhibition Zone (mm)” value (SRIF receptors) was 14 mm.

In the case of CC[C@@H](C)[C@@H](NC(=O)[C@@H](Cc1ccccc1)NC(=O)[C@@H](Cc1c[nH]cn1)NC(C)=O)C(=O)N[C@H](CCCNC(=N)N)C(=O)N[C@H](Cc1c[nH]c2ccccc12)C(=O)N[C@H](C)C(N)=O [Seq Id No. 22] (Ac-[dH][dF][dI][dR][dW][dA]-NH2), the “Inhibition Zone (mm)” value (SRIF receptors) is reported as 15 mm.

CC[C@@H](C)[C@@H](NC(=O)[C@@H](Cc1c[nH]c2ccccc12)NC(=O)[C@@H](Cc1c[nH]cn1)NC(C)=O)C(=O)N[C@H](CCCNC(=N)N)C(=O)N[C@H](Cc1ccccc1)C(=O)N[C@H](Cc1ccccc1)C(N)=O [Peptide 29, h-w-i-r-f-f] (Ac-[dH][dW][dI][dR][dF][dF]-NH2; N-terminus and C-terminus assumed) was tested, and the Emax (SSTR2; test peptide 100 µM) was 21.3%.

For CC[C@@H](C)[C@@H](NC(=O)[C@@H](Cc1c[nH]c2ccccc12)NC(=O)[C@@H](CCCNC(=N)N)NC(=O)[C@H](NC(=O)[C@@H](Cc1ccccc1)NC(=O)[C@@H](Cc1c[nH]cn1)NC(C)=O)[C@H](C)CC)C(N)=O [Seq Id No. 21] (Ac-[dH][dF][dI][dR][dW][dI]-NH2), the “Inhibition Zone (mm)” value (SRIF receptors) was 16 mm.

In the case of CC[C@@H](C)[C@H]1NC(=O)[C@@H](Cc2ccccc2)NC(=O)[C@@H](Cc2c[nH]cn2)NC(=O)[C@@H](Cc2ccccc2)NC(=O)[C@@H](Cc2c[nH]c3ccccc23)NC(=O)[C@@H](CCCNC(=N)N)NC1=O [Peptide 35, h-f-i-r-w-f] (cyclo([dH][dF][dI][dR][dW][dF])), the Emax (SSTR2; test peptide 100 µM) is reported as 122%.
